ChEMBL document CHEMBL1157049, “Synthesis and study of some new 1,3-isoindoledione derivatives as potential antibacterial agents” (2010)

Tests used:
[1] = tested on: Bacillus thuringiensis; assay: Antimicrobial activity Bacillus thuringiensis at 2 mg/mL after 24 hrs by agar diffusion technique; type: functional; settings: read-out: DIZ
[2] = tested on: Escherichia coli; assay: Antimicrobial activity Escherichia coli at 2 mg/mL after 24 hrs by agar diffusion technique; type: functional; settings: read-out: DIZ

O=C(c1ccc(N2C(=O)C3C4c5ccccc5C(c5ccccc54)C3C2=O)cc1)c1nc2ccccc2[nH]1 (stereo not drawn)
zone of inhibition at 2000 µg/mL [1]: 20 mm
zone of inhibition at 2000 µg/mL [2]: 23 mm

Nc1ccccc1N1C(=O)C2C3c4ccccc4C(c4ccccc43)C2C1=O (stereo not drawn)
zone of inhibition at 2000 µg/mL [1]: 17 mm
zone of inhibition at 2000 µg/mL [2]: 12 mm

Cc1ccc(S(=O)(=O)Oc2ccccc2N2C(=O)C3C4c5ccccc5C(c5ccccc54)C3C2=O)cc1 (stereo not drawn)
zone of inhibition at 2000 µg/mL [1]: 15 mm
zone of inhibition at 2000 µg/mL [2]: 18 mm

O=C1C2C3c4ccccc4C(c4ccccc43)C2C(=O)N1c1ccccc1S (stereo not drawn)
zone of inhibition at 2000 µg/mL [1]: 18 mm
zone of inhibition at 2000 µg/mL [2]: 16 mm

O=C1C2C3c4ccccc4C(c4ccccc43)C2C(=O)N1c1ccccc1SSc1ccccc1N1C(=O)C2C3c4ccccc4C(c4ccccc43)C2C1=O (stereo not drawn)
zone of inhibition at 2000 µg/mL [1]: 17 mm
zone of inhibition at 2000 µg/mL [2]: 17 mm

O=C(N[C@H](CO)[C@H](O)c1ccc([N+](=O)[O-])cc1)C(Cl)Cl [CHLORAMPHENICOL]
zone of inhibition at 2000 µg/mL [1]: 23 mm
zone of inhibition at 2000 µg/mL [2]: 20 mm

CC(=O)c1ccc(N2C(=O)C3C4c5ccccc5C(c5ccccc54)C3C2=O)cc1 (stereo not drawn)
zone of inhibition at 2000 µg/mL [1]: 15 mm
zone of inhibition at 2000 µg/mL [2]: 12 mm

O=C(c1ccc(N2C(=O)C3C4c5ccccc5C(c5ccccc54)C3C2=O)cc1)C(Br)Br (stereo not drawn)
zone of inhibition at 2000 µg/mL [1]: 17 mm
zone of inhibition at 2000 µg/mL [2]: 14 mm

O=C1C2C3c4ccccc4C(c4ccccc43)C2C(=O)N1c1ccccc1O (stereo not drawn)
zone of inhibition at 2000 µg/mL [1]: 17 mm
zone of inhibition at 2000 µg/mL [2]: 16 mm

O=C1/C(=N\c2ccccc2N2C(=O)C3C4c5ccccc5C(c5ccccc54)C3C2=O)C=C(Nc2ccccc2N2C(=O)C3C4c5ccccc5C(c5ccccc54)C3C2=O)c2ccccc21 (stereo not drawn)
zone of inhibition at 2000 µg/mL [1]: 17 mm
zone of inhibition at 2000 µg/mL [2]: 17 mm

CC(=O)Nc1ccccc1N1C(=O)C2C3c4ccccc4C(c4ccccc43)C2C1=O (stereo not drawn)
zone of inhibition at 2000 µg/mL [1]: 18 mm
zone of inhibition at 2000 µg/mL [2]: 16 mm

Cc1ccc2nc(N3C(=O)C4C5c6ccccc6C(c6ccccc65)C4C3=O)sc2c1 (stereo not drawn)
zone of inhibition at 2000 µg/mL [1]: 26 mm
zone of inhibition at 2000 µg/mL [2]: 29 mm

Cc1ccc(/N=N/c2ccc(N3C(=O)C4C5c6ccccc6C(c6ccccc65)C4C3=O)cc2)cc1 (stereo not drawn)
zone of inhibition at 2000 µg/mL [1]: 11 mm
zone of inhibition at 2000 µg/mL [2]: 14 mm

O=C1C2C3c4ccccc4C(c4ccccc43)C2C(=O)N1c1nc[nH]n1 (stereo not drawn)
zone of inhibition at 2000 µg/mL [1]: 17 mm
zone of inhibition at 2000 µg/mL [2]: 15 mm

O=C1C2C3c4ccccc4C(c4ccccc43)C2C(=O)N1C(CO)(CO)CO (stereo not drawn)
zone of inhibition at 2000 µg/mL [1]: 15 mm
zone of inhibition at 2000 µg/mL [2]: 14 mm

CC1(C)S[C@@H]2[C@H](NC(=O)[C@H](N)c3ccccc3)C(=O)N2[C@H]1C(=O)O [AMPICILLIN]
zone of inhibition at 2000 µg/mL [1]: 18 mm
zone of inhibition at 2000 µg/mL [2]: 19 mm

COC(=O)n1c(C2C3c4ccccc4C(c4ccccc43)C2C(=O)O)nc2ccccc21 (stereo not drawn)
zone of inhibition at 2000 µg/mL [1]: 17 mm
zone of inhibition at 2000 µg/mL [2]: 13 mm

CCOC(=O)c1c(N2C(=O)C3C4c5ccccc5C(c5ccccc54)C3C2=O)sc2c1CCCC2 (stereo not drawn)
zone of inhibition at 2000 µg/mL [1]: 15 mm
zone of inhibition at 2000 µg/mL [2]: 14 mm

O=C1C2C3c4ccccc4C(c4ccccc43)C2C(=O)N1c1ccc(/N=N/c2ccccc2)cc1 (stereo not drawn)
zone of inhibition at 2000 µg/mL [1]: 13 mm
zone of inhibition at 2000 µg/mL [2]: 14 mm
